Key:
Assay type in all cases: biochemical
Recombinant human TRKA = molecular target: T1, Recombinant human TRKA (Homo sapiens, UniProt P04629); experiment: In vitro activity test on TRKA kinase (HTRF KinEASE TK); conditions: 14.68 μM ATP, 40 min
T1 construct: purchased Carna Biosciences
Procedure, shortened: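 Reaction: 0.2 ng/μL TRKA, 1 μM biotinylated TK substrate, 14.68 μM ATP, 5 mM MgCl2, 1 mM DTT, 1% DMSO, 40 min at room temperature. Compounds tested at 1 μM to 0.05 nM (10-point, 3-fold, duplicate). HTRF 665/620 ratio converted to % inhibition versus no-compound control; IC50 by 4-parameter fit.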

[1] = molecular target: T2, recombinant human TRKA (G667C) (Homo sapiens, UniProt P04629, G667C); experiment: In vitro activity test on mutant TRKA (G667C) (HTRF KinEASE TK); conditions: 5.5 μM ATP, 30 min
T2 construct: purchased SignalChem
T2 sequence (P04629 33-796 G667C): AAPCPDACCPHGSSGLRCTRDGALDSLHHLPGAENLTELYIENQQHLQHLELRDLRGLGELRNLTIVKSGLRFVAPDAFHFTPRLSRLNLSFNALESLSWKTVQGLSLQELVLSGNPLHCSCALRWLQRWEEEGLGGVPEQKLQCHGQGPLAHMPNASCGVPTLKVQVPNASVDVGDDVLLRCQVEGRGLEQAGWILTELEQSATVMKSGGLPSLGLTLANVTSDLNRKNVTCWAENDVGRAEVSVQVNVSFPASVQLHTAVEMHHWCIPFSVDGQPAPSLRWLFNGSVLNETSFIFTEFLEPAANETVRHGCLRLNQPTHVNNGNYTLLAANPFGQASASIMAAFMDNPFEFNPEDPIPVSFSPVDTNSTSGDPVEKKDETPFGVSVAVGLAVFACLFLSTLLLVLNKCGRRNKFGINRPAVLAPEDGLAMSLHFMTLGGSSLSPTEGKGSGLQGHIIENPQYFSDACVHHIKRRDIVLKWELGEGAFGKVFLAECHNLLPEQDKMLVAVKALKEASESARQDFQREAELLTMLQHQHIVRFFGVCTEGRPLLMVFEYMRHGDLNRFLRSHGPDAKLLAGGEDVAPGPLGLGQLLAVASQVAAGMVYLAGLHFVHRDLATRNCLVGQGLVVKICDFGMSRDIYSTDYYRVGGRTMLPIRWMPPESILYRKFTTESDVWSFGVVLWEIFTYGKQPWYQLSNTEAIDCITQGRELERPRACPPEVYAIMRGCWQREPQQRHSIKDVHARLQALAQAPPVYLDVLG
Procedure: Biological Test Example 2 In Vitro Activity Test on Mutant TRKA (G595R), TRKA (G667C) and TRKC (G623R)
The recombinant human TRKA (G595R), TRKA (G667C) and TRKC (G623R) proteins were purchased from SignalChem. HTRF kinEASE TK kit was purchased from CisbioBioassays. Synergy Neo 2 of Biotek was used to read the plate.
The tested compound was subjected to 4-fold serial dilution to reach a final concentration of 1 μM to 0.004 nM (10 concentrates), duplicates for each concentration; and 1% DMSO was present in the detection reaction.
0.026 ng/μL TRKA (G667C) kinase, 1 μM TK Substrate-biotin polypeptide substrate, 5.5 μm ATP, 1× enzymatic buffer, 5 mM MgCl2, and 1 mM DTT. The detection plate was White Proxiplate 384-Plus plate (PerkinElmer), and incubated at room temperature for 30 min, the assay volume was 10 μL.
10 μL of detection reagent was added to the plate (containing 0.125 μM SA-XL665 and 5 μL 1×TK-Antibody) and incubated overnight at room temperature, and Synergy Neo 2 was used to read the plate.
The value of 665/620 Ratio minus the value of negative control wells without enzyme, then the obtained value was converted according to the following formula into inhibition rate (%)=(1−Ratiotest/Ratiomax)×100%. Ratiomax was a positive control without tested compound, and Ratiotest was the value of each concentration of different compounds. IC50 (nM) data was obtained by 4 parameter curve fitting (see Table 1).

[2] = molecular target: T3, recombinant human TRKA (G595R) (Homo sapiens, UniProt P04629, G595R); experiment: In vitro activity test on mutant TRKA (G595R) (HTRF KinEASE TK); conditions: 4.5 μM ATP, 30 min
T3 construct: purchased SignalChem
T3 sequence (P04629 33-796 G595R): as the sequence (P04629 33-796 G667C) above, with G563R, C635G counted along it
Procedure, shortened: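 HTRF KinEASE TK format: 0.12 ng/μL recombinant TRKA (G595R), 1 μM biotinylated TK substrate, 4.5 μM ATP, 5 mM MgCl2, 1 mM DTT, 1% DMSO, 30 min at room temperature; detection overnight. IC50 from 10-point 4-fold series (1 μM to 0.004 nM, duplicates), 665/620 ratio, 4-parameter fit.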

Recombinant human TRKB = molecular target: T4, Recombinant human TRKB (Homo sapiens, UniProt Q16620); experiment: In vitro activity test on TRKB kinase (HTRF KinEASE TK); conditions: 4.77 μM ATP, 50 min
T4 construct: purchased Carna Biosciences
T4 sequence (Q16620 32-822): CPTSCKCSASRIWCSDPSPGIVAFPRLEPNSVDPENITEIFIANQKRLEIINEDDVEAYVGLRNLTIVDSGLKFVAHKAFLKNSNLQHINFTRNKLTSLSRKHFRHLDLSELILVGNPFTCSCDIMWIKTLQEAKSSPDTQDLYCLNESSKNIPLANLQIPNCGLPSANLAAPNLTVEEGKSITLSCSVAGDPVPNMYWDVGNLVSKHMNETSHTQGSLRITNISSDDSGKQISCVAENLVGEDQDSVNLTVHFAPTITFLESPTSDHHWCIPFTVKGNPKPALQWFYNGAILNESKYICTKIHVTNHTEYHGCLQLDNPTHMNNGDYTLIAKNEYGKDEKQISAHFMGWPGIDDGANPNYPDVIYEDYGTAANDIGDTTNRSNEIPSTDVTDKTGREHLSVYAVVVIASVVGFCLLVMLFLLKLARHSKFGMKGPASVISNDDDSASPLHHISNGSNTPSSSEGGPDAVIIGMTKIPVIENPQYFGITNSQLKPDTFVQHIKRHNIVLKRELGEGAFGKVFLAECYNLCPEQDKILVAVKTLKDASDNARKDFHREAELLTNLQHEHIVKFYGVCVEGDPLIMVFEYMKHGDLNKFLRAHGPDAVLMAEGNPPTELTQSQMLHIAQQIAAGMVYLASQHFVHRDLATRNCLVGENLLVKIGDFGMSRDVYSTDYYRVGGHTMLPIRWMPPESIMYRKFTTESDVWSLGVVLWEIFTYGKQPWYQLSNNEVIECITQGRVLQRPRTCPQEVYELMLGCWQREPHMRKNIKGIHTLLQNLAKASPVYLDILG
Procedure, shortened: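 Recombinant human TRKB (0.037 ng/μL) phosphorylated 1 μM biotinylated TK substrate at 4.77 μM ATP, 5 mM MgCl2, 1% DMSO, 50 min at room temperature; compounds 1 μM–0.05 nM. HTRF KinEASE detection overnight; 665/620 ratio converted to inhibition and IC50 from 4-parameter fit.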

Recombinant human TRKC = molecular target: T5, Recombinant human TRKC (Homo sapiens, UniProt Q16288); experiment: In vitro activity test on TRKC kinase (HTRF KinEASE TK); conditions: 25.64 μM ATP, 40 min
T5 construct: purchased Carna Biosciences
T5 sequence (Q16288 32-839): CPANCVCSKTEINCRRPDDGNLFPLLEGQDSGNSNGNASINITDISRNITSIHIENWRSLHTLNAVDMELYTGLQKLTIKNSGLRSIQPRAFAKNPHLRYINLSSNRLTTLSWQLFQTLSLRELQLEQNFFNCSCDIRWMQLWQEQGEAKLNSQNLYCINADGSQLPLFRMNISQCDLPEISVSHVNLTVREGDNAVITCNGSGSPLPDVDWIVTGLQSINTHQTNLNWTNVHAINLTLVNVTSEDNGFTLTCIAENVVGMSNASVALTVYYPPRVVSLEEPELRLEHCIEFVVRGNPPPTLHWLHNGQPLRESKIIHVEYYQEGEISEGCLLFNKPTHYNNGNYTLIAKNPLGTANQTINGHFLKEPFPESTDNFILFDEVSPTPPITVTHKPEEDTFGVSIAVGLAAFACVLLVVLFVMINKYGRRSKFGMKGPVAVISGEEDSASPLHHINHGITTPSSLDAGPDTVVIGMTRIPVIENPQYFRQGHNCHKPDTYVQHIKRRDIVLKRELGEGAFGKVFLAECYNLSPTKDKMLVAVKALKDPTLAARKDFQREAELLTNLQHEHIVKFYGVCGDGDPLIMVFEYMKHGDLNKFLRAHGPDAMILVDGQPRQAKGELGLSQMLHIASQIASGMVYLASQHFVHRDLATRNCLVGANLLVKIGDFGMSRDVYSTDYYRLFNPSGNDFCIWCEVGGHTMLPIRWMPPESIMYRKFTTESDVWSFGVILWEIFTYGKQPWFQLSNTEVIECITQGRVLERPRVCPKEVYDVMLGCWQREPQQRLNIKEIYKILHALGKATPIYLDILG
Procedure, shortened: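 Recombinant human TRKC (0.037 ng/μL) with 1 μM biotinylated TK substrate, 25.64 μM ATP, 5 mM MgCl2, 1 mM DTT, 40 min at room temperature; compound 1 μM to 0.05 nM, 1% DMSO. HTRF 665/620 ratio after overnight detection; IC50 from 4-parameter fit.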

T1 sequence (P04629 33-796): as the sequence (P04629 33-796 G667C) above, with C635G counted along it

Row | Structure (SMILES) | IC50 (Recombinant human TRKA) | IC50 [1] | IC50 [2] | IC50 (Recombinant human TRKB) | IC50 (Recombinant human TRKC)
1 | OC1CCC(Nc2ccnc3ccc(N4C[C@@H](F)C[C@@H]4c4cc(F)ccc4F)nc23)C1 (stereo partly drawn) [Example 2, 3-((6-((2R,4S)-2-(2,5-difluorophenyl)-4-fluoropyrrolidin-1-yl)-1,5-naphthyridin-4-yl)amino)cyclopentan-1-ol] | < 10 nM | < 10 nM | < 10 nM | < 10 nM | < 10 nM
2 | Fc1ccc(F)c([C@H]2CCCN2c2ccc3nccc(-c4cnn(C5CCNCC5)c4F)c3n2)c1 [Example 15, (R)-2-(2-(2,5-Difluorophenyl)pyrrolidin-1-yl)-8-(5-fluoro-1-(piperidin-4-yl)-1H-pyrazole-4-yl)-1,5-naphthyridine] | < 1 nM | < 10 nM | < 1 nM | < 1 nM | < 1 nM
3 | Fc1ccc(F)c([C@H]2C[C@H](F)CN2c2ccc3ncc(Cl)c(-c4noc(C5CCNCC5)n4)c3n2)c1 [Example 51, 3-(3-Chloro-6-((2R,4S)-2-(2,5-difluorophenyl)-4-fluoropyrrolidin-1-yl)-1,5-naphthyridine-4-yl)-5-(piperidin-4-yl)-1,2,4-oxadiazole] | < 1 nM | < 1 nM | < 1 nM | < 1 nM | < 1 nM
4 | Fc1ccc(F)c([C@H]2CCCN2c2ccc3ncc(Cl)c(-c4cnn(C5CCNCC5)c4)c3n2)c1 [Example 24, (R)-7-chloro-2-(2-(2,5-difluorophenyl)pyrrolidin-1-yl)-8-(1-(piperidin-4-yl)-1H-pyrazol-4-yl)-1,5-naphthyridine] | < 1 nM | < 10 nM | < 1 nM | < 1 nM | < 10 nM
5 | O[C@H]1CCN(c2ncc(-c3ncnc4ccc(N5C[C@@H](F)C[C@@H]5c5cc(F)ccc5F)nc34)cn2)C1 [Example 72, (S)-1-(5-(6-((2R,4S)-2-(2,5-difluorophenyl)-4-fluoropyrrolidin-1-yl)pyrido[3,2-d]primidin-4-yl)pyrimidin-2-yl)pyrrolidin-3-ol] | < 1 nM | < 10 nM | < 1 nM | < 1 nM | < 1 nM
6 | Fc1ccc(F)c([C@H]2C[C@H](F)CN2c2ccc3ncc(Cl)c(-c4cnc(C5CCNCC5)s4)c3n2)c1 [Example 50, 5-(3-Chloro-6-((2R,4S)-2-(2,5-difluorophenyl)-4-fluoropyrrolidin-1-yl)-1,5-naphthyridin-4-yl)-2-(piperidin-4-yl)thiazole] | < 1 nM | < 10 nM | < 10 nM | < 10 nM | < 10 nM
7 | Fc1ccc(F)c([C@H]2C[C@H](F)CN2c2ccc3ncc(Cl)c(-c4cnn([C@@H]5CCNC5)c4)c3n2)c1 [Example 56, 7-chloro-2-((2R,4S)-2-(2,5-difluorophenyl)-4-fluoropyrrolidin-1-yl)-8-(1-((R)-pyrrolidin-3-yl)-1H-pyrazol-4-yl)-1,5-naphthyridine] | < 1 nM | < 10 nM | < 10 nM | < 10 nM | < 1 nM
8 | COc1ncc(F)cc1[C@H]1CCCN1c1ccc2ncc(Cl)c(-c3cnn(C4CCNCC4)c3)c2n1 [Example 30, (R)-7-chloro-2-(2-(5-fluoro-2-methoxypyridin-3-yl)pyrrolidin-1-yl)-8-(1-(piperidin-4-yl)-1H-pyrazol-4-yl)-1,5-naphthyridine] | < 1 nM | < 10 nM | < 1 nM | < 10 nM | < 10 nM
9 | O[C@H]1CN=C(Nc2ccnc3ccc(N4C[C@@H](F)C[C@@H]4c4cc(F)ccc4F)nc23)OC1 [Example 99, (S)-2-((6-((2R,4S)-2-(2,5-difluorophenyl)-4-fluoropyrrolidin-1-yl)-1,5-naphthyridin-4-yl)amino)-5,6-dihydro-4H-1,3-oxazin-5-ol] | < 1 nM | < 1 nM | < 1 nM | < 1 nM | < 10 nM
10 | O[C@H]1CCN(C(=S)Nc2ccnc3ccc(N4C[C@@H](F)C[C@@H]4c4cc(F)ccc4F)nc23)C1 [Example 79, (S)-N-(6-((2R,4S)-2-(2,5-difluorophenyl)-4-fluoropyrrolidin-1-yl)-1,5-naphthyridin-4-yl)-3-hydroxypyrrolidine-1-methylthioamide] | < 1 nM | < 10 nM | < 1 nM | < 1 nM | < 1 nM
11 | Fc1ccc(F)c([C@H]2C[C@H](F)CN2c2ccc3nccc(-c4cnn(C5CCNCC5)c4)c3n2)c1 [Example 11, 2-((2R,4S)-2-(2,5-difluorophenyl)-4-fluoropyrrolidin-1-yl)-8-(1-(piperidin-4-yl)-1H-pyrizol-4-yl)-1,5-naphthyridine] | < 1 nM | < 1 nM | < 1 nM | < 1 nM | < 1 nM
12 | Fc1ccc(F)c([C@H]2C[C@H](F)CN2c2ccc3ncc(Cl)c(-c4cnn([C@H]5CCNC5)c4)c3n2)c1 [Example 57, 7-chloro-2-((2R,4S)-2-(2,5-difluorophenyl)-4-fluoropyrrolidin-1-yl)-8-(1-((S)-pyrrolidin-3-yl)-1H-pyrazol-4-yl)-1,5-naphthyridine] | < 1 nM | < 10 nM | < 1 nM | < 10 nM | < 1 nM
13 | O[C@H]1CCN(c2ncnc3ccc(N4C[C@@H](F)C[C@@H]4c4cc(F)ccc4F)nc23)C1 [Example 71, (S)-1-(6-((2R,4S)-2-(2,5-difluorophenyl)-4-fluoropyrrolidin-1-yl)pyrido[3,2-d]pyrimidine-4-yl)pyrrolidin-3-ol] | < 1 nM | < 10 nM | < 1 nM | < 1 nM | < 1 nM
14 | Fc1ccc(F)c([C@H]2C[C@H](F)CN2c2ccc3ncc(Cl)c(-c4cnc(N5CCOCC5)s4)c3n2)c1 [Example 61, 4-(5-(3-chloro-6-((2R,4S)-2-(2,5-difluorophenyl)-4-fluoropyrrolidin-1-yl)-1,5-naphthyridin-4-yl)thiazol-2-yl)morpholine] | < 10 nM | < 10 nM | < 50 nM | < 50 nM | < 10 nM
15 | Fc1ccc(F)c([C@H]2C[C@H](F)CN2c2ccc3ncc(Cl)c(-c4cn(C5CCNCC5)nn4)c3n2)c1 [Example 67, 7-chloro-2-((2R,4S)-2-(2,5-difluorophenyl)-4-fluoropyrrolidin-1-yl)-8-(1-(piperidin-4-yl)-2H-1,2,3-triazol-4-yl)-1,5-naphthyridine] | < 1 nM | < 10 nM | < 10 nM | < 1 nM | < 1 nM
16 | O=S1(=O)CCC(n2cc(-c3c(Cl)cnc4ccc(N5C[C@@H](F)C[C@@H]5c5cc(F)ccc5F)nc34)cn2)CC1 [Example 47, 4-(4-(3-chloro-6-((2R,4S)-2-(2,5-difluorophenyl)-4-fluoropyrrolidin-1-yl)-1,5-naphthyridin-4-yl)-1H-pyrazol-1-yl)tetrahydro-2H-thiopyran 1,1-dioxide] | < 1 nM | < 1 nM | < 10 nM | < 1 nM | < 1 nM
17 | Fc1ccc(F)c([C@H]2C[C@H](F)CN2c2ccc3ncc(Cl)c(-c4cnn(C5CCNCC5)n4)c3n2)c1 [Example 41, 7-chloro-2-((2R,4S)-2-(2,5-difluorophenyl)-4-fluoropyrrolidin-1-yl)-8-(2-(piperidin-4-yl)-2H-1,2,3-triazol-4-yl)-1,5-naphthyridine] | < 1 nM | < 1 nM | < 10 nM | < 1 nM | < 1 nM

Reference: patent publication US20220017512A1 (SHANGHAI ENNOVABIO PHARMACEUTICALS CO., LTD., priority 2018, published 2022)
